From patent publication US10654805B2, “Pyridinethiones, pharmaceutical compositions thereof, and their therapeutic use for treating a proliferative, inflammatory, neurodegenerative, or immune-mediated disease” (BioTheryX, Inc., priority 2016, dated 2020)

Columns and labels:
[1] = tested on: myelin basic protein (MBP); assay: Induction of myelin basic protein (MBP) production in MO3-13 cells, slot blot with anti-MBP antibody; format: cell-based, human; details: with and without cuprizone; for relative MBP binding compared with vehicle control: MO3-13 cells, p<0.0001, FIG. 2; for relative MBP binding (anti-MBP antibody): MO3-13 whole cell extracts
Experimental: Whole cell extracts of MO3-13 cells were prepared using 6 M urea. An aliquot of 100 μL was removed and diluted with an equal volume of 6 M urea. A 5 μL aliquot was removed and quantitated for protein levels. Total protein concentrations were determined using the BioRad protein assay method at 595 nm. Total protein in the whole cell extracts was determined and a ratio of recovered protein was used to calculate the relative amount of MBP in the whole cell extracts. Whole cell extracts were diluted to 0.1 mg/mL. Extracts containing 2.5 μg of protein were applied onto nitrocellulose membrane in a slot blotter using a vacuum method to draw the sample onto the membrane. The non-protein sites on the membrane were blocked with 2% ECL blocking reagent diluted in PBS-Tween20. Primary anti-Bovine MBP was diluted in the same block solution at 300×. The primary antibody was incubated one hour at room temperature with gentle shaking. The blot was developed using enhanced ECL (GE Healthcare) method. Image of bound antibody were captured using Image Lab software driving a Bio-Rad ChemiDoc XRS+ image capture system. The data was graphically represented using Graph Pad Prism software.

[2] = tested on: C57/B6 mice; assay: Cuprizone model of demyelination in mice: brain myelination scores; format: in vivo
Experimental: (§1) The ability of compound A1 to effect the demyelination process was evaluated in a cuprizone model of demyelination in mice. Thirty-six male C57/B6 mice aged 7-8 weeks were acclimated for 1 week prior to study commencement and housed 2 mice per cage. Mice in Group 1 received control chow without cuprizone, and all other mice were fed mouse diet containing 0.2% cuprizone for 5 weeks. Food was changed every other day, body and food weights were obtained daily. All cuprizone and control food was stored in vacuum containers and stored frozen until use.
(§2) Dosing solutions were prepared fresh on each day of dosing. Compound A1 was first dissolved in DMSO in a volume of 10% of the final volume, followed by addition of solutol HS-15 in a volume of 10% of the final volume and a solution of 10% hydroxypropyl-β-cyclodextrin in a volume of 80% of the final volume. Unless otherwise noted, all test articles were administered in a volume of 0.1 mL/10 g body weight.
(§3) During this process, mice received either vehicle or compound A1 at 50 mg/kg or 100 mg/kg via intraperitoneal injection daily. At the end of 5 weeks, the mice were sacrificed and the brain histology of each group compared to controls that had not received cuprizone. Statistical differences between treatment groups were determined using Mann-Whitney Rank Sum or ANOVA tests with a critical value of 0.05.
(§4) Evaluation of the myelin content of the brains was focused on three areas—the rostral corpus callosum, the dorsal corpus callosum and the cerebellum. The extent of demyelination in both sagittal sections was determined by a board certified veterinary pathologist blinded to animal treatment. Percent demyelination was scored as follows: demyelination ranging from 0 to 10% of the total anatomical structure was scored as 0; demyelination ranging from 11 to 30% of the total anatomical structure was scored as 1; demyelination ranging from 31 to 60% of the total anatomical structure was scored as 2; demyelination ranging from 61 to 90% of the total anatomical structure was scored as 3; and demyelination ranging from 91 to 100% of the total anatomical structure was scored as 4. The extent of MBP staining intensity was based on a 1-4 scale, where 4 was the highest level of staining seen (100%).

[3] = Cuprizone model in mice: body weight, deaths and toxicity; format: in vivo
Experimental: as §1, §2, §3
All animals were weighed every day in order to assess possible differences in animal weight among treatment groups as an indication of possible toxicity resulting from the treatments. Animals with a weight loss of more than 20% of their starting weight were euthanized. Mice with weight loss of more than 15% of their starting weight were not treated again until weight loss recovered to less than 5% of their starting weight. […] One animal in the cuprizone/vehicle group was also euthanized on Day 20 due to poor condition and weight loss. All remaining mice survived until the end of the study.

[4] = tested on: myelin basic protein (MBP); assay: Cuprizone model of demyelination in mice: MBP immunohistochemistry staining score; format: in vivo
Experimental: as §1, §2, §3, §4
In addition, immunohistochemistry was performed for myelin basic protein (MBP), and slides were analyzed for the intensity of MBP staining in the same regions. The mean rostral corpus callosum MBP staining score for the control groups was 4. In the vehicle treated group receiving cuprizone chow, the mean rostral corpus callosum m MBP staining score was 2.9. In the group receiving cuprizone chow and compound A1 at 50 mg/kg, the mean rostral corpus callosum MBP staining score was 3.2. Additional analysis of the rostral corpus callosum MBP staining was conducted using an ANOVA test.

| Compound | relative MBP binding compared with vehicle control [1] | relative MBP binding (anti-MBP antibody) [1] | mean cerebellar myelination score ([2]; 50 mg/kg IP QD, cuprizone chow 5 weeks, not significant) | mean rostral corpus callosum myelination score ([2]; 50 mg/kg IP QD, cuprizone chow 5 weeks, not significant vs vehicle) | mean caudal corpus callosum myelination score ([2]; 50 mg/kg IP QD, cuprizone chow 5 weeks, p=0.0012 vs vehicle) | demyelination in the rostral corpus callosum vs vehicle treated group ([2]; cuprizone mice) | demyelination in the dorsal corpus callosum vs mice receiving vehicle ([2]; cuprizone mice, p=0.0012) | average loss of starting weight during the study ([3]; 50 mg/kg IP QD, cuprizone food, 5 weeks) [%] | toxicity ([3]; 50 mg/kg daily, cuprizone treatment) | mice that suddenly started to lose weight and die ([3]; 100 mg/kg IP QD, cuprizone food, between Days 20 and 24, despite discontinuation of dosing) | mean cerebellum MBP staining score ([4]; 50 mg/kg IP QD, cuprizone chow 5 weeks, 1-4 scale, 4 highest, not significant) | mean rostral corpus callosum MBP staining score ([4]; 50 mg/kg IP QD, cuprizone chow 5 weeks, 1-4 scale, 4 highest, not significant vs vehicle) | mean caudal corpus callosum MBP staining score ([4]; 50 mg/kg IP QD, cuprizone chow 5 weeks, 1-4 scale, 4 highest, p=0.0064 vs vehicle) | MBP expression in the rostral corpus callosum vs vehicle treated group ([4]; cuprizone mice) | MBP expression in the dorsal corpus callosum vs mice receiving vehicle ([4]; cuprizone mice, p=0.0064) |
| --- | --- | --- | --- | --- | --- | --- | --- | --- | --- | --- | --- | --- | --- | --- | --- |
| Cc1cc(C(F)(F)F)cc(=S)[nH]1 [A3, 6-methyl-4-trifluoromethylpyridine-2(1H)-thione] | significantly increased above vehicle control | elevated relative MBP binding | – | – | – | – | – | – | – | – | – | – | – | – | – |
| Cc1cc(CC(C)CC(C)(C)C)[nH]c(=S)c1 (stereo not drawn) [compound A2, 4-methyl-6-(2,4,4-trimethylpentyl)pyridine-2(1H)-thione] | – | elevated relative MBP binding | – | – | – | – | – | – | – | – | – | – | – | – | – |
| Cc1cc(C2CCCCC2)[nH]c(=S)c1 [compound A1, 6-cyclohexyl-4-methylpyridine-2(1H)-thione] | significantly increased above vehicle control | elevated relative MBP binding | 3.2 | 2.1 | 2.1 | no statistically significant differences | significantly less demyelination | 10.6 | no evidence of toxicity beyond that seen in the vehicle group | nine often mice | 3.8 | 3.2 | 3.1 | no statistically significant differences | significantly less demyelination |
